{
  "source": "patent US7767210B2",
  "about": "“RNA virus vaccines and methods” (priority 2005, dated 2010)",
  "key": {"WNV [1]": {"system": "WNV", "assay": "Safety of MB-treated WNV in immunodeficient mice (i.p. injection, survival)", "assay_type": "in vivo, C.B. 17-SCID mice", "settings": "20 μM MB; conclusion from BalbC/j and SCID mice"}, "OK03 strain of WNV": {"system": "OK03 strain of WNV", "assay": "MB + light inactivation of WNV, plaque assay on Vero cells", "assay_type": "cell-based, West Nile Virus", "settings": "MB above 2 μM and light; FIG. 2 panel B; stated as 'held true' for this strain", "experimental": "(§1) MB inactivation of West Nile Virus. 1 ml aliquots of WNV at a concentration of 10^7 pfu were mixed with MB (SIGMA INC.) to achieve the desired final concentration of MB in the reaction mixture. Mixtures were incubated for 20 minutes in the dark at room temperature and then subsequently for 10 minutes at 10 cm distance from a 40 watt fluorescent white culture hood light at room temperature. Samples were then diluted to the desired concentration of WNV for plaque assay. Inactivated virus was prepared fresh for each assay and never kept for longer than 2 hours at 4° C. before use. It is contemplated that other RNA viruses as described herein can be similarly treated for vaccine formation.\n(§2) Plaque Assays. Five-fold serial dilutions of WNV strains either mock-treated or treated with MB were placed onto Vero cell monolayers cultured in either 6-well plates or T25 culture flasks (GREINER INC.). Virus aliquots were allowed to attach to the cells for 1 hour at normal cell culture conditions. After one hour the virus was aspirated from the cells. The monolayers were washed twice with phosphate-buffer saline (PBS) and overlayed with 2 ml or 5 ml (6-well or T25, respectively) of 1% methylcellulose (SIGMA INC.) medium supplemented with 2% calf serum. Cells were incubated for 5 days. Afterwards the methylcellulose was removed, the monolayers were washed once with PBS and fixed with 100% ice-cold methanol for 5 minutes. The monolayers were subsequently stained with 0.5% Giemsa stain (SIGMA INC.) and plaques counted using a MZ12 dissecting microscope (LEICA INC., Germany).\n(§3) As a member of the Flaviviridae family of viruses, WNV utilizes a RNA dependent RNA polymerase for replication. This process is relatively error prone and can lead to the creation of multiple strains. To test the ability of MB to inactivate multiple WNV strains, MB was tested against multiple strains of WNV, including OK02, OK03 and NY-99 (the 1999 prototype virus NY-99 and the more recent Oklahoma isolates from 2002 and 2003). 5×10^3 pfu of OK03 WNV was incubated with 2 μM MB and light. […]"}, "OK02 strain of WNV": {"system": "OK02 strain of WNV", "assay": "MB + light inactivation of WNV, plaque assay on Vero cells", "assay_type": "cell-based, West Nile Virus", "settings": "MB above 2 μM and light; FIG. 2 panel A", "experimental": "as §1, §2, §3"}, "NY-99 strain of WNV": {"system": "NY-99 strain of WNV", "assay": "MB + light inactivation of WNV, plaque assay on Vero cells", "assay_type": "cell-based, West Nile Virus", "settings": "MB above 2 μM and light; data not shown; stated as 'held true' for this strain", "experimental": "as §1, §2, §3"}, "WNV [2]": {"system": "WNV", "assay": "MB photoinactivation of WNV in tissue culture (strain not stated)", "assay_type": "cell-based, West Nile Virus", "experimental": "as §1\nas §2, with “Cells were incubated for 5 days. Afterwards the methylcellulose was removed, the monolayers were washed once with PBS and fixed with 100% ice-cold methanol for 5 minutes.” left out"}, "[3]": {"settings": "cited from earlier work"}, "WNV strain OK02": {"system": "WNV strain OK02", "assay": "Safety of MB-treated WNV in immunocompetent mice (i.p. injection, survival)", "assay_type": "in vivo, BalbC/j mice", "settings": "virus treated with MB+light, doses of 10^3 and 10^4 pfu per animal"}},
  "data": [
    {"smiles": "CN(C)c1ccc2nc3ccc(N(C)C)cc3[s+]c2c1.[Cl-]", "note": "[MB, 3,7-Bis(dimethylamino)phenothiazin-5-ium chloride]", "values": [
      {"measurement": "effect on WNV-associated morbidity and mortality in vivo", "setting": "WNV [1]", "value": "can stop WNV-associated morbidity and mortality"},
      {"measurement": "reduction of viral activity", "setting": "OK03 strain of WNV", "value": "≥ 10^3"},
      {"measurement": "reduction of viral activity", "setting": "OK02 strain of WNV", "value": "≥ 10^3"},
      {"measurement": "reduction of viral activity", "setting": "NY-99 strain of WNV", "value": "≥ 10^3"},
      {"measurement": "reduction of virus titer", "setting": "WNV [2]; 20 μM MB + light", "value": "10^7 pfu"},
      {"measurement": "IC50", "setting": "WNV [2]; West Nile virus, MB + light, tissue culture, read-out: IC50 of MB+light inactivation of WNV", "value": 100, "unit": "nM"},
      {"measurement": "oral absorption", "setting": "[3]; DiSanto and Wagner 1972", "value": "absorbed orally"},
      {"measurement": "concentration in blood", "setting": "[3]; oral 100 mg/kg twice daily (Naylor et al., 1986)", "value": "~50", "unit": "µM"},
      {"measurement": "half-life", "setting": "[3]; oral (DiSanto and Wagner 1972)", "value": "about 10 h"},
      {"measurement": "side effects on long-term oral use", "setting": "[3]; oral, up to 19 months at 100 mg/kg twice daily (Naylor et al., 1986)", "value": "no reported side effects"},
      {"measurement": "WNV-associated morbidity and mortality", "setting": "WNV strain OK02", "value": "completely block-associated morbidity and mortality"}
    ]}
  ]
}
